This is an account of results in publication PMC9241695, “Selective Metal Chelation by a Thiosemicarbazone Derivative Interferes with Mitochondrial Respiration and Ribosome Biogenesis in Candida albicans” (Microbiology Spectrum, 2022).

The subject of data set [1] is C. parapsilosis CP001. Briefly: Microbroth dilution MIC80. It is filed as cell-based, Candida parapsilosis. The conditions noted are these: Lodderomyces parapsilosis, CP001. The procedure, abridged: (§1)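 CLSI microbroth dilution in RPMI1640, inoculum 1 × 10^3 CFU/mL, compounds 0.0156–64 μg/mL final, 24 h at 35 °C. MIC read as visible growth inhibition versus control, in duplicate.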

Data set [2] deals with C. albicans SC5314. Description: CCK-8 reduction assay, mitochondrial dehydrogenase activity. The format is cell-based, Candida albicans. The following applies: 0.125 μg/mL to 5 μg/mL. Here is the method: The Cell Counting Kit-8
(§2) (CCK-8) assay is used to measure the dehydrogenase activity in the mitochondria of C. albicans or mammalian cells. C. albicans SC5314 (5 × 10^6 cells/mL in RPMI1640 medium) were treated with different concentrations of 19ak in 96-well plates at 30°C for 12 h or 48 h. 10 μL of CCK-8 solution was added to each well. After an additional 2 h of incubation, OD450 in each well was detected with a microplate reader. […]
A general note: Tetrazolium assays rely on reduction of a dye to a coloured formazan, in cell work by metabolically active cells.

In data set [3] the test system is C. albicans CA4. Description: Microbroth dilution MIC80. It is filed as cell-based. The following applies: Candida albicans, CA4. The procedure, abridged: as §1
In general terms: In broth dilution the organism is exposed to a series of concentrations in liquid medium.

The subject of data set [4] is C. albicans CA1. Briefly: Microbroth dilution MIC80. The following applies: Candida albicans, CA1. The format is cell-based. The procedure, abridged:
as §1

Data set [5] has as its system C. albicans F5. Briefly: Microbroth dilution MIC80. The format is cell-based. The following applies: Candida albicans, F5. The procedure, abridged:
as §1

Data set [6] relates to C. albicans 28D. Briefly: Microbroth dilution MIC80. The format is cell-based. The following applies: Candida albicans, 28D. The procedure, abridged:
as §1

For data set [7], the system named is C. albicans DSY654. Description: Microbroth dilution MIC80. It is filed as cell-based. The following applies: Candida albicans. The procedure, abridged: as §1
Data set [8] has as its system C. tropicalis CT2. Description: Microbroth dilution MIC80. The format is cell-based. The following applies: Candida tropicalis, CT2. The procedure, abridged: as §1
Data set [9] relates to C. albicans 28A. Description: Microbroth dilution MIC80. The format is cell-based. The following applies: Candida albicans, 28A. The procedure, abridged: as §1
The test system of data set [10] is A. fumigatus AF293. Description: Antifungal susceptibility testing, microbroth dilution MIC. The format is cell-based. The conditions noted are these: Aspergillus fumigatus, AF293; standard strain of A. fumigatus; 48 h; read-out: MIC (μg/mL) against fungi AF293. The procedure, abridged: (§3)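 CLSI microbroth dilution in RPMI1640, final drug range 0.0156–64 μg/mL. Inocula 1 × 10^3 CFU/mL for C. albicans and C. neoformans, 1 × 10^4 CFU/mL for A. fumigatus; 35°C for 24 h (C. albicans) or 48 h (C. neoformans, A. fumigatus). MIC read as visible growth inhibition versus control, in duplicate.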

Data set [11] concerns C. neoformans H99. The data set is described as above. It is filed as cell-based. The following applies: Cryptococcus neoformans, H99; C. neoformans wild-type strain; 48 h; read-out: MIC (μg/mL) against fungi H99. The procedure, abridged:
as §3

In data set [12] the test system is mammalian cells of 16HBE or HepG2. Briefly: CCK-8 reduction assay, mitochondrial dehydrogenase activity. The format is cell-based, human. The following applies: 5 μg/mL, 12 h or 48 h. The protocol:
as §2, with “the fluorescent complex […] (CTF) is commonly used to indicate the intensity of microbial respiration. C. albicans SC5314 treated with 19ak was stained with 1 mM CTC for 30 min, followed by flow cytometry analysis of respiratory activity based on fluorescence intensity. Images of cells were obtained using a fluorescence microscope (IX71, Olympus, Tokyo, Japan). The Cell Counting Kit-8 (CCK-8)” for “(CCK-8)”
Mitochondrial isolation and detection of mitochondrial respiratory chain complex activity. […] The activities of mitochondrial respiratory chain complexes I-IV were determined by using the Micro Mitochondrial Respiratory Chain Complex Activity Assay Kit (Solarbio, Beijing, China). The concentration of protein was determined using the BCA Protein Assay Kit (Beyotime, Haimen, China).
Mitochondrial complex activity was expressed as nmol/min/mg protein. […]

Values after ≈ are worked out from the molar mass of the structure shown.

As usually defined, the MIC80 is the lowest concentration that inhibits either 80% of growth or 80% of the strains tested, depending on the study. Lower therefore signals higher susceptibility. As to `C/C(=N\NC(=S)N(C)C)c1ccccn1` [Compound 19ak], the MIC80 in data set [1] came to 0.125 µg/mL (≈ 0.562 µM); in [3], 0.125 µg/mL (≈ 0.562 µM); in data set [4], 0.25 µg/mL (≈ 1.12 µM); in data set [5], 0.5 µg/mL (≈ 2.25 µM); in data set [6] it was 0.125 µg/mL (≈ 0.562 µM); in data set [7], 0.125 µg/mL (≈ 0.562 µM). Moreover, the MIC80 is 0.5 µg/mL (≈ 2.25 µM) in [8] and 0.125 µg/mL (≈ 0.562 µM) in [9]. For the same molecule, in data set [2], the “Mitochondrial dehydrogenase activity of C. albicans (CCK-8, absorbance at 450 nm)” value is listed as “decreased accordingly in a dose-dependent manner”. Further, the MIC in data set [10] and in data set [11] was 0.5 µg/mL (≈ 2.25 µM) throughout. Besides, the “Mitochondrial dehydrogenase activity of mammalian cells (CCK-8)” value in data set [12] is “minimal inhibitory effect”.
